According to patent US20250332300A1 (priority 2024, published 2025):
pIC50, pKd: −log10 of the molar value. Where a name gives a salt, the structure may show the parent alone. Read-outs that look alike come from different tables or passages of the source. Starred links: 1 amine or outer side, 2 acyl side, 3 side chain; linkers in the order of their positions; H or OH if unused. Positions of bridges follow the written chain, without caps; N, C: chain ends. Non-standard residues stand in square brackets, D forms with d. Residues, ends and D or L forms follow the SMILES beside them. Trp(5-OH) = N[C@@H](Cc1c[nH]c2ccc(O)cc12)C(=O)O; NMePhe(4-F) = CN[C@@H](Cc1ccc(F)cc1)C(=O)O; X1 = O=C([C@H](Cc1cnn2ccccc12)N[*:1])[*:2]; NMehPhe = CN[C@@H](CCc1ccccc1)C(=O)O; NMeE = CN[C@@H](CCC(=O)O)C(=O)O; Aad = N[C@@H](CCCC(=O)O)C(=O)O; Gly(cPr) = N[C@H](C(=O)O)C1CC1; NMeD = CN[C@@H](CC(=O)O)C(=O)O; NMeDap = CN[C@@H](CN)C(=O)O; 3Amb = NCc1cccc(C(=O)O)c1; NMeS = CN[C@@H](CO)C(=O)O; Dap = NC[C@H](N)C(=O)O

Tests used:
Format in all cases: binding
human HER2 (23-652) [1] = biological target: T1, human HER2 (23-652) (Homo sapiens, UniProt P04626); assay: Surface plasmon resonance (SPR) for assessment of peptide affinity, human HER2; design: towards human HER2 (23-652) and mouse HER2 (23-653); made in house
Outline: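 Binding kinetics fitted from sensorgrams with 280 s peptide association then 3000 s dissociation (30 uL/min), using HER2 (23-652) either directly immobilized (SA/CM5) or anti-Fc-captured; 3 M magnesium chloride used for regeneration.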

mouse HER2 (23-653) [2] = biological target: T2, mouse HER2 (23-653) (Mus musculus, UniProt P70424); assay: TR-FRET competition assay for peptide potency, mouse HER2; design: mouse HER2 (23-653) using a Cy5 labeled peptide as a probe; made in house; host or cells: mammalian cells
mouse HER2 (23-653) [3] = biological target: T2, mouse HER2 (23-653); assay: Surface plasmon resonance (SPR) for assessment of peptide affinity, mouse HER2; design: mouse HER2 (23-653) using a Cy5 labeled peptide as a probe; made in house
Excerpt: Each protein was immobilized either onto a SA sensorchip (Cytiva, BR-1005-31) or CM5 sensorchip (Cytiva, BR-1005-30) to a density of 800-2000 RU.

human HER2 (23-652) [4] = biological target: T1, human HER2 (23-652); assay: TR-FRET competition assay for peptide potency, human HER2; design: towards human HER2 (23-652) and mouse HER2 (23-653); made in house; host or cells: mammalian cells
[5] = SPR, human HER2 extracellular domain, 25° C., 1:1 binding model, read-out: huHER2-SPR-ONC KD
[6] = TR-FRET competition with Cy5 labeled peptide probe, 0.1 nM mouse HER2, 24 h incubation, read-out: moHER2 TR-FRET IC50
[7] = SPR, mouse HER2 extracellular domain, 25° C., 1:1 binding model, read-out: moHER2-SPR-ONC KD

Compound | pKd (human HER2 (23-652) [1]; [5]) | pIC50 (mouse HER2 (23-653) [2]; [6]) | pKd (mouse HER2 (23-653) [3]; [7]) | pIC50 (human HER2 (23-652) [4]; read-out: huHER2 TR-FRET IC50) | pKd (human HER2 (23-652) [1]) | pIC50 (mouse HER2 (23-653) [2]; moHER2 TR-FRET IC50, TR-FRET competition with Cy5 labeled peptide probe, 0.1 nM mouse HER2, 24 h incubation) | pIC50 (mouse HER2 (23-653) [2]; moHER2 TR-FRET IC50, recalculated value achieved after further repetition, value in parentheses (**): recalculated after further repetition) | pKd (mouse HER2 (23-653) [3]) | pIC50 (human HER2 (23-652) [4]; huHER2 TR-FRET IC50, TR-FRET competition with Cy5 labeled peptide probe, 0.1 nM human HER2, 24 h incubation) | pIC50 (human HER2 (23-652) [4]; huHER2 TR-FRET IC50, recalculated value achieved after further repetition, value in parentheses (**): recalculated after further repetition)
CC(=O)N[C@H]1CCC(=O)NC[C@@H](C(=O)N(C)[C@@H](Cc2ccc(F)cc2)C(N)=O)N(C)C(=O)[C@H](C2CC2)NC(=O)[C@H](Cc2cnn3ccccc23)NC(=O)[C@H](Cc2c[nH]c3ccc(O)cc23)NC(=O)[C@H](CO)N(C)C(=O)[C@H](CCc2ccccc2)N(C)C(=O)[C@H](CO)NC(=O)[C@H](Cc2ccc(O)cc2)NC1=O [Example A21, (3S,6S,9S,12S,15S,18S,21S,24S,27S)-27-acetamido-N-((S)-1-amino-3-(4-fluorophenyl)-1-oxopropan-2-yl)-6-cyclopropyl-12-((5-hydroxy-1H-indol-3-yl)methyl)-24-(4-hydroxybenzyl)-15,21-bis(hydroxymethyl)-N,4,16,19-tetramethyl-5,8,11,14,17,20,23,26,30-nonaoxo-18-phenethyl-9-(pyrazolo[1,5-a]pyridin-3-ylmethyl)-1,4,7,10,13,16,19,22,25-nonaazacyclotriacontane-3-carboxamide] (Ac-EYS[NMehPhe][NMeS][Trp(5-OH)][X1][Gly(cPr)][NMeDap][NMePhe(4-F)]-NH2; lactam 1-9) | < 5.22 | < 6.00 | < 5.22 | < 6.00 | – | – | – | – | – | –
CN1C(=O)[C@H](CO)NC(=O)[C@H](Cc2ccc(O)cc2)NC(=O)c2cccc(c2)CNC(=O)C[C@@H](C(=O)N(C)[C@@H](Cc2ccc(F)cc2)C(N)=O)N(C)C(=O)[C@H](C2CC2)NC(=O)[C@H](Cc2c[nH]c3ccccc23)NC(=O)[C@H](Cc2c[nH]c3ccc(O)cc23)NC(=O)[C@H](CO)N(C)C(=O)[C@@H]1CCc1ccccc1 [Example A24, (4S,7S,10S,13S,16S,19S,22S,25S)-19-((1H-indol-3-yl)methyl)-N-((S)-1-amino-3-(4-fluorophenyl)-1-oxopropan-2-yl)-22-cyclopropyl-16-((5-hydroxy-1H-indol-3-yl)methyl)-4-(4-hydroxybenzyl)-7,13-bis(hydroxymethyl)-N,9,12,24-tetramethyl-2,5,8,11,14,17,20,23,27-nonaoxo-10-phenethyl-3,6,9,12,15,18,21,24,28-nonaaza-1(1,3)-benzenacyclononacosaphane-25-carboxamide] ([3Amb]YS[NMehPhe][NMeS][Trp(5-OH)]W[Gly(cPr)][NMeD][NMePhe(4-F)]-NH2; lactam N-9) | 5.55 | < 6.00 | 5.29 | < 6.00 | – | – | – | – | – | –
CC(=O)N[C@H]1CC(=O)NC[C@@H](C(=O)N(C)[C@@H](Cc2ccc(F)cc2)C(N)=O)N(C)C(=O)[C@H](C2CC2)NC(=O)[C@H](Cc2c[nH]c3ccccc23)NC(=O)[C@H](Cc2c[nH]c3ccc(O)cc23)NC(=O)[C@H](CO)N(C)C(=O)[C@H](CCc2ccccc2)N(C)C(=O)[C@H](CO)NC(=O)[C@H](Cc2ccc(O)cc2)NC1=O [Example A28, (3S,6S,9S,12S,15S,18S,21S,24S,27S)-9-((1H-indol-3-yl)methyl)-27-acetamido-N-((S)-1-amino-3-(4-fluorophenyl)-1-oxopropan-2-yl)-6-cyclopropyl-12-((5-hydroxy-1H-indol-3-yl)methyl)-24-(4-hydroxybenzyl)-15,21-bis(hydroxymethyl)-N,4,16,19-tetramethyl-5,8,11,14,17,20,23,26,29-nonaoxo-18-phenethyl-1,4,7,10,13,16,19,22,25-nonaazacyclononacosane-3-carboxamide] (Ac-DYS[NMehPhe][NMeS][Trp(5-OH)]W[Gly(cPr)][NMeDap][NMePhe(4-F)]-NH2; lactam 1-9) | 6.51 | 6.38 | 6.38 | 6.65 | – | – | – | – | – | –
CN1C(=O)[C@H](CO)NC(=O)[C@H](Cc2ccc(O)cc2)NC(=O)[C@@H](N)CNC(=O)CC[C@@H](C(=O)N(C)[C@@H](Cc2ccc(F)cc2)C(N)=O)N(C)C(=O)[C@H](C2CC2)NC(=O)[C@H](Cc2c[nH]c3ccccc23)NC(=O)[C@H](Cc2c[nH]c3ccc(O)cc23)NC(=O)[C@H](CO)N(C)C(=O)[C@@H]1CCc1ccccc1 [Example A34, (3S,6S,9S,12S,15S,18S,21S,24S,30S)-6-((1H-indol-3-yl)methyl)-24-amino-N-((S)-1-amino-3-(4-fluorophenyl)-1-oxopropan-2-yl)-3-cyclopropyl-9-((5-hydroxy-1H-indol-3-yl)methyl)-21-(4-hydroxybenzyl)-12,18-bis(hydroxymethyl)-N,1,13,16-tetramethyl-2,5,8,11,14,17,20,23,27-nonaoxo-15-phenethyl-1,4,7,10,13,16,19,22,26-nonaazacyclotriacontane-30-carboxamide TFA salt] (H-[Dap]YS[NMehPhe][NMeS][Trp(5-OH)]W[Gly(cPr)][NMeE][NMePhe(4-F)]-NH2; lactam 1-9) | – | – | – | – | 7.17 | 6.53 | 6.76 | 7.19 | 6.80 | 6.93

Now from value to molecule, other results behind:

pKd (human HER2 (23-652) [1]; [5]) | pIC50 (mouse HER2 (23-653) [2]; [6]) | pKd (mouse HER2 (23-653) [3]; [7]) | pIC50 (human HER2 (23-652) [4]; read-out: huHER2 TR-FRET IC50) | Compound | pKd (human HER2 (23-652) [1]) | pIC50 (mouse HER2 (23-653) [2]; moHER2 TR-FRET IC50, TR-FRET competition with Cy5 labeled peptide probe, 0.1 nM mouse HER2, 24 h incubation) | pIC50 (mouse HER2 (23-653) [2]; moHER2 TR-FRET IC50, recalculated value achieved after further repetition, value in parentheses (**): recalculated after further repetition) | pKd (mouse HER2 (23-653) [3]) | pIC50 (human HER2 (23-652) [4]; huHER2 TR-FRET IC50, TR-FRET competition with Cy5 labeled peptide probe, 0.1 nM human HER2, 24 h incubation) | pIC50 (human HER2 (23-652) [4]; huHER2 TR-FRET IC50, recalculated value achieved after further repetition, value in parentheses (**): recalculated after further repetition)
6.61 | 6.20 | 6.68 | 6.41 | CC(=O)N[C@H]1CCC(=O)NC[C@@H](C(=O)N(C)[C@@H](Cc2ccc(F)cc2)C(N)=O)N(C)C(=O)[C@H](C2CC2)NC(=O)[C@H](Cc2c[nH]c3ccccc23)NC(=O)[C@H](Cc2c[nH]c3ccc(O)cc23)NC(=O)[C@H](CO)N(C)C(=O)[C@H](CCc2ccccc2)N(C)C(=O)[C@H](CCCC(=O)O)NC(=O)[C@H](Cc2ccc(O)cc2)NC1=O [Example A27, 4-((2S,5S,8S,11S,14S,17S,20S,23S,29S)-17-((1H-indol-3-yl)methyl)-29-acetamido-23-(((S)-1-amino-3-(4-fluorophenyl)-1-oxopropan-2-yl)(methyl)carbamoyl)-20-cyclopropyl-14-((5-hydroxy-1H-indol-3-yl)methyl)-2-(4-hydroxybenzyl)-11-(hydroxymethyl)-7,10,22-trimethyl-3,6,9,12,15,18,21,26,30-nonaoxo-8-phenethyl-1,4,7,10,13,16,19,22,25-nonaazacyclotriacontan-5-yl)butanoic acid] (Ac-EY[Aad][NMehPhe][NMeS][Trp(5-OH)]W[Gly(cPr)][NMeDap][NMePhe(4-F)]-NH2; lactam 1-9) | – | – | – | – | – | –
6.31 | < 6.00 | 6.12 | 6.07 | CN1C(=O)[C@H](CO)NC(=O)[C@H](Cc2ccc(O)cc2)NC(=O)[C@@H](N)Cc2cccc(c2)CC(=O)NC[C@@H](C(=O)N(C)[C@@H](Cc2ccc(F)cc2)C(N)=O)N(C)C(=O)[C@H](C2CC2)NC(=O)[C@H](Cc2c[nH]c3ccccc23)NC(=O)[C@H](Cc2c[nH]c3ccc(O)cc23)NC(=O)[C@H](CO)N(C)C(=O)[C@@H]1CCc1ccccc1 [Example A31, (6S,9S,12S,15S,18S,21S,24S,27S,30S)-12-((1H-indol-3-yl)methyl)-30-amino-N—((S)-1-amino-3-(4-fluorophenyl)-1-oxopropan-2-yl)-9-cyclopropyl-15-((5-hydroxy-1H-indol-3-yl)methyl)-27-(4-hydroxybenzyl)-18,24-bis(hydroxymethyl)-N,7,19,22-tetramethyl-3,8,11,14,17,20,23,26,29-nonaoxo-21-phenethyl-4,7,10,13,16,19,22,25,28-nonaaza-1 (1,3)-benzenacyclohentriacontaphane-6-carboxamide TFA salt] | – | – | – | – | – | –
7.43 | 6.91 | 7.18 | 7.28 | CN1C(=O)[C@H](CO)NC(=O)[C@H](Cc2ccc(O)cc2)NC(=O)[C@@H](N)CCC(=O)NC[C@@H](C(=O)N(C)[C@@H](Cc2ccc(F)cc2)C(N)=O)N(C)C(=O)[C@H](C2CC2)NC(=O)[C@H](Cc2c[nH]c3ccccc23)NC(=O)[C@H](Cc2c[nH]c3ccc(O)cc23)NC(=O)[C@H](CO)N(C)C(=O)[C@@H]1CCc1ccccc1 [Example A35, (3S,6S,9S,12S,15S,18S,21S,24S,27S)-9-((1H-indol-3-yl)methyl)-27-amino-N—((S)-1-amino-3-(4-fluorophenyl)-1-oxopropan-2-yl)-6-cyclopropyl-12-((5-hydroxy-1H-indol-3-yl)methyl)-24-(4-hydroxybenzyl)-15,21-bis(hydroxymethyl)-N,4,16,19-tetramethyl-5,8,11,14,17,20,23,26,30-nonaoxo-18-phenethyl-1,4,7,10,13,16,19,22,25-nonaazacyclotriacontane-3-carboxamide TFA 5 salt] | – | – | – | – | – | –
